The results in this text go back to patent US20220143061A1, “3'3'-CYCLIC DINUCLEOTIDES AND PRODRUGS THEREOF” (INSTITUTE OF ORGANIC CHEMISTRY AND BIOCHEMISTRY ASCR, V.V.I., priority 2019, published 2022).

SMILES strings stand for the structures. pEC50: −log10 of the molar value. Where two headings read alike, the source gives them in different places.

Assay [1] concerns peripheral blood mononuclear cell (PBMC). Put plainly: Peripheral blood mononuclear cell assay (cytokine levels). Format: cell-based. As to the method: Selected compounds were tested in an in vitro peripheral blood mononuclear cell (PBMC) assay. […] Serially diluted tested compounds were added to wells in 50 μl of cultivation medium and cell were incubated with compounds for 1 h at 37° C. with 5% CO2. Plates with cells were then spun 500 g for 5 minutes and medium was removed. Cells were washed twice with the cell culture medium by the use of centrifugation and gently resuspended in 100 μl medium without compounds. After 15 hour incubation at 37° C. with 5% CO2, the cell culture medium was collected and the levels of interferon-alpha (INF-α), interferon-gamma (INF-γ) and tumor necrosis factor-alpha (TNF-α) were determined with ProcartaPlex Assays (ThermoFisher, Waltham, USA) and MAGPIX System (Merck KGaA, Darmstadt, Germany). […] Values reported are an average of runs from one to four donors.

The target of assay [2] is T1, human wild type STING (WT STING) (Homo sapiens, UniProt Q86WV6, H232R).
T1 construct: host or cells: 293T cells (ATCC CRL-3216), stably double transfected with pUNO1-hSTING-WT and pGL64.27-4×ISRE
T1 sequence (Q86WV6 whole entry H232R): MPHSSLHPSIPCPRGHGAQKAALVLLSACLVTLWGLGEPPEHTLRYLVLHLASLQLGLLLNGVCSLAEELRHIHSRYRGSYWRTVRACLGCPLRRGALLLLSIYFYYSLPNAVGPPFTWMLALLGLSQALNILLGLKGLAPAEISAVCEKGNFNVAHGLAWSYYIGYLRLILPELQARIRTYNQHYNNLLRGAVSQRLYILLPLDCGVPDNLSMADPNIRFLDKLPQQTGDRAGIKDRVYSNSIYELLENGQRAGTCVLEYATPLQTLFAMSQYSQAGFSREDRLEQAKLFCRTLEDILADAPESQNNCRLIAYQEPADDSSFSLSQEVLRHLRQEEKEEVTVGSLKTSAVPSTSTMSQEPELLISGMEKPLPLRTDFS
Nature of the assay: 293T WT STING standard reporter assay. Format: cell-based. As to conditions: no digitonin, 7 hours, ISRE firefly luciferase. The text has this:
Two complementary oligonucleotides of the sequence […] […] […] […] […] The oligonucleotides were mixed in equal molar amounts, hybridized, and cleaved by restriction endonucleases HindIII (cat. #. R0104S, NEB, Ipswich, USA) and BglII (cat. #R0144S, NEB, Ipswich, USA). Ultimately, they were ligated into plasmid pGL4.27 (cat. #E6651, Promega, Madison, USA) linearized with the same enzymes. As result the sequence with four ISRE sites was placed upstream of the minimum promoter of firefly luciferase reporter gene.
After 5 minutes incubation at room temperature (RT), 250 μL of the mixture was added dropwise to the cells in one well. Cells were incubated 36 hours at 37° C. with 5% CO2, and then detached with 0.05% Trypsin and 0.22 g/L EDTA (both cat. #L0941, Biowest, Riverside, USA).
Transfected cells were seeded onto poly-D-lysine coated six well plates at density 50,000 cells per 1 cm^2 in DMEM medium with high glucose containing 10% heat inactivated FBS, 30 μg/mL blasticidin (cat. #ant-b1-05, InvivoGen, San Diego, USA), 0.06 mg/ml Penicillin G and 0.1 mg/ml Streptomycin Sulfate (both cat. #. L0018, Biowest, Riverside, USA). The medium was replenished every 3-4 days until visible colonies of cells resistant to blasticidin were formed.
Blasticidin resistant cells stably expressing WT STING were further transfected with pGL64.27-4×ISRE plasmid following the same procedure as described above. […] Homogeneous culture of stably double transfected cells was prepared by limiting dilution of cells in 96 well plates and wells with cells were selected that originated from a single cell.
The medium was removed the next day and three-fold serial dilutions of compounds in 100 μl medium were added to the cells. The plates were incubated for 7 hours at 37° C. with 5% CO2. Next 50 μl of the medium was removed from wells, and 30 μl of ONE-Glo™ Luciferase Assay System reagent (cat. #E6120, Promega, Madison, USA) was added to each well. Luminescence was read on Synergy H1 (Biotek, Winooski, USA).
On the technique in general: Reporter assays use an easily measured gene product as a stand-in for the process of interest.

[3] abbreviates: 1 h with compound, wash, 15 hour incubation, average of one to four donors, read-out: PBMC EC50 IFN-α.
The mark [4] stands for this setting: 1 h with compound, wash, 15 hour incubation, average of one to four donors, read-out: PBMC EC50 TNF-α.
[5] abbreviates: 293T wtSTING-FL cells, read-out: 293T WT STING EC50.
Setting [6] is: 1 h with compound, wash, 15 hour incubation, average of one to four donors, read-out: PBMC EC50 IFN-γ.
[7] abbreviates: read-out: PBMC EC50 IFN-α, 1 h with compound, wash, 15 hour incubation, average of one to four donors.
[8] abbreviates: read-out: PBMC EC50 IFN-γ, 1 h with compound, wash, 15 hour incubation, average of one to four donors.
Setting [9] is: 293T WT STING EC50, 293T wtSTING-FL cells.

For orientation: pEC50 means −log10 of the EC50, conventionally taken in molar units. `CCCCCCCC(=O)OCOP1(=O)CO[C@H]2[C@@H](F)[C@H](n3cnc4c(N)ncnc43)O[C@@H]2COP(=O)(OCOC(=O)CCCCCCC)O[C@H]2[C@@H](F)[C@H](n3cnc4c(N)ncnc43)O[C@@H]2CO1` (mixture of isomers) [Compound 46b, {[(1R,6R,8R,9R,10R,16R,18R,19R)-8,18-bis(6-amino-9H-purin-9-yl)-9,19-difluoro-13-[(octanoyloxy)methoxy]-3,13-dioxo-2,4,7,11,14,17-hexaoxa-3λ^5,13λ^5-diphosphatricyclo[14.3.0.0^6,^10]nonadecan-3-yl]oxy}methyl octanoate]: the pEC50 was 8.40 in assay [1] (setting [3]), 9.00 in assay [1] (setting [4]) and 8.70 in assay [2] (setting [5]).
For `CC(C)(C)C(=O)OCOP1(=O)CO[C@H]2[C@@H](F)[C@H](n3cnc4c(N)ncnc43)O[C@@H]2COP(=O)(OCOC(=O)C(C)(C)C)O[C@H]2[C@@H](F)[C@H](n3cnc4c(N)ncnc43)O[C@@H]2CO1` (single isomer, unassigned) [Compound 41c], the pEC50 in assay [1] (setting [3]) is 7.15; in assay [1] (setting [6]), 7.22; in assay [1] (setting [4]), 7.22; in assay [2] (setting [5]), 7.96.
As to `CC(C)OC(=O)OCOP1(=O)CO[C@H]2[C@@H](F)[C@H](n3cnc4c(N)ncnc43)O[C@@H]2COP(=O)(OCOC(=O)OC(C)C)O[C@H]2[C@@H](F)[C@H](n3cnc4c(N)ncnc43)O[C@@H]2CO1` (single isomer, unassigned) [Compound 42c], the pEC50 in assay [1] (setting [3]) is 6.22; in assay [1] (setting [6]) it was 6.52; in assay [1] (setting [4]), 6.22; in assay [2] (setting [5]), 7.30.
For `CCCCCCCCCCCC(=O)OCSP1(=O)CO[C@H]2[C@@H](F)[C@H](n3cnc4c(N)ncnc43)O[C@@H]2COP(=O)(SCOC(=O)CCCCCCCCCCC)O[C@H]2[C@@H](F)[C@H](n3cnc4c(N)ncnc43)O[C@@H]2CO1` (single isomer, unassigned) [Compound 43b], the pEC50 is 6.40 in assay [1] (setting [7]); 6.52 in assay [1] (setting [8]); 6.70 in assay [1] (read-out: PBMC EC50 TNF-α, PBMC, 1 h with compound, wash, 15 hour incubation, average of one to four donors); 7.52 in assay [2] (setting [9]).
Turning to `CCCCCCCCCCCC(=O)OCSP1(=O)CO[C@H]2[C@@H](F)[C@H](n3cnc4c(N)ncnc43)O[C@@H]2COP(=O)(SCOC(=O)CCCCCCCCCCC)O[C@H]2[C@@H](F)[C@H](n3cnc4c(N)ncnc43)O[C@@H]2CO1` (single isomer, unassigned) [Compound 43c], the pEC50 in assay [1] (setting [7]) is 6.05; in assay [1] (setting [8]) it was 7.00; in assay [1] (read-out: PBMC EC50 TNF-α, 1 h with compound, wash, 15 hour incubation, average of one to four donors) it was 6.52; in assay [2] (setting [9]), 7.22.
`CCC(C)(C)C(=O)OCOP1(=O)CO[C@H]2[C@@H](F)[C@H](n3cnc4c(N)ncnc43)O[C@@H]2COP(=O)(OCOC(=O)C(C)(C)CC)O[C@H]2[C@@H](F)[C@H](n3cnc4c(N)ncnc43)O[C@@H]2CO1` (single isomer, unassigned) [Compound 44a]: the pEC50 in assay [1] (setting [3]) is 6.00; in assay [1] (setting [6]) it was 6.30; in assay [1] (setting [4]), 6.22; in assay [2] (setting [5]) it was 8.00.
The corresponding values for `CCC(C)(C)C(=O)OCOP1(=O)CO[C@H]2[C@@H](F)[C@H](n3cnc4c(N)ncnc43)O[C@@H]2COP(=O)(OCOC(=O)C(C)(C)CC)O[C@H]2[C@@H](F)[C@H](n3cnc4c(N)ncnc43)O[C@@H]2CO1` (single isomer, unassigned) [Compound 44c] are 7.00, 5.77, 6.00 and 8.22.
The corresponding values for `CC1(C(=O)OCOP2(=O)CO[C@H]3[C@@H](F)[C@H](n4cnc5c(N)ncnc54)O[C@@H]3COP(=O)(OCOC(=O)C3(C)CCCCC3)O[C@H]3[C@@H](F)[C@H](n4cnc5c(N)ncnc54)O[C@@H]3CO2)CCCCC1` (single isomer, unassigned) [Compound 45a] are 6.00, 5.10, 6.30 and 7.22.
Regarding `CC1(C(=O)OCOP2(=O)CO[C@H]3[C@@H](F)[C@H](n4cnc5c(N)ncnc54)O[C@@H]3COP(=O)(OCOC(=O)C3(C)CCCCC3)O[C@H]3[C@@H](F)[C@H](n4cnc5c(N)ncnc54)O[C@@H]3CO2)CCCCC1` (single isomer, unassigned) [Compound 45c], the pEC50 is 6.52 in assay [1] (setting [3]), 6.70 in assay [1] (setting [6]), 6.40 in assay [1] (setting [4]) and 7.15 in assay [2] (setting [5]).
Consider `CCCCCCCC(=O)OCOP1(=O)CO[C@H]2[C@@H](F)[C@H](n3cnc4c(N)ncnc43)O[C@@H]2COP(=O)(OCOC(=O)CCCCCCC)O[C@H]2[C@@H](F)[C@H](n3cnc4c(N)ncnc43)O[C@@H]2CO1` (single isomer, unassigned) [Compound 46a], for which the pEC50 was 8.52 in assay [1] (setting [3]), 9.00 in assay [1] (setting [4]) and 8.30 in assay [2] (setting [5]).
Turning to `CCCCCCCC(=O)OCOP1(=O)CO[C@H]2[C@@H](F)[C@H](n3cnc4c(N)ncnc43)O[C@@H]2COP(=O)(OCOC(=O)CCCCCCC)O[C@H]2[C@@H](F)[C@H](n3cnc4c(N)ncnc43)O[C@@H]2CO1` (single isomer, unassigned) [Compound 46c], the pEC50 is 7.70 in assay [1] (setting [3]), 8.00 in assay [1] (setting [4]) and 9.00 in assay [2] (setting [5]).
